# Laboratory results as given in patent US9550815B2, “ABC terpenoid transporters and methods of using the same” (priority 2012, dated 2017).
# Legend:
# [1] = system: Sc-ABC; assay: Yeast cell survival, dilution plate assay; type: cell-based, Saccharomyces cerevisiae; conditions: for Sc-ABC cells survived relative to Sc-V: one-hour treatment, 5 μL monoterpene, counted after 4 days; for Observation (B) Transformed Sc survival: GcABC-G1-dependent difference, Sc-ABC versus Sc-V; for relative inhibition of the yeast GcABC-G1 transformant by individual monoterpenoids: individual monoterpenoids compared
# Experimental: The survival of Sc-V and Sc-ABC with individual monoterpenes was shown using a dilution plate assay. Overnight yeast cultures grown in SG broth were diluted to an OD600 of 0.2 and further grown to an OD600 of 0.4 at 28° C. The yeast cells were diluted to an appropriate density that was spread on SG media in Petri dishes glass (10^5 per petri dish). The yeast cells were treated for one hour with a specific monoterpene (5 μL) diluted in 245 μL ethanol; the solution was applied on five small filter papers placed inside the lid and the glass plates were sealed with DuraSeal film. After one-hour incubation, the chemical was removed and plates were further incubated for 4 days at 28° C. The numbers of surviving cells with and without monoterpene treatments were counted.
# [2] = system: Wildtype G. clavigera; assay: Growth on YNB with monoterpenes as sole carbon source; type: cell-based, Grosmannia clavigera; conditions: 200 μL, 4 weeks
# Experimental: (§1) Fungal spores were incubated for 3 days on 1% malt extract agar (MEA) overlaid with cellophane (Amersham Biosciences, cat #80611781), then the young mycelia were treated with a mixture of monoterpenes (200 μL) for 3-4 days before being transferred onto yeast nitrogen base (YNB) medium with a mixture of monoterpenes (MT) as sole carbon source (YNB+MT; […] YNB without amino acids, but with ammonium sulphate) in glass plates. The synthetic monoterpenoid blend contained R-(+)-limonene, 3-carene, α-pinene and β-pinene at a ratio of 5:3:1:1. If necessary monoterpenes were re-supplied biweekly until the mycelia covered at least half of the media surface (3-4 weeks). RNA-seq analysis was performed after 10 days. G. clavigera grown on YNB+1% mannose as the sole carbon source was used as a control.
# (§2) Experiments were performed as described in Example 3.A.2. Growth of wildtype G. clavigera and the mutant Δgcabc-g1 was determined utilizing yeast nitrogen base (YNB)+either 10 μL or 200 μL of (+)-limonene, α-pinene or β-pinene. Growth was determined after 4 weeks. Monoterpenes were re-supplied every 2 weeks. Growth on YNB alone was used as a negative control. Growth on YNB+1% mannose was used as a positive control.
# [3] = system: mutant Δgcabc-g1; assay: Mycelium growth on MEA with monoterpenes; type: cell-based, Grosmannia clavigera; conditions: for growth delay of mutant Δgcabc-g1: 200 μL individual monoterpene or MT; for fungal growth rate, mutant Δgcabc-g1 / growth rate of mutant Δgcabc-g1 lower than G. clavigera WT: 200 μL monoterpene; for fungal growth rate, mutant Δgcabc-g1: linear phase after delay
# Experimental: (§3) Mono- and diterpene treatments were performed on glass petri dishes with the mono- and diterpenes applied to filter paper that was placed in the cover of the petri dish, which was sealed by Duraseal film. Specifically, plugs of actively growing G. clavigera fungal cultures on MEA were transferred into the center of glass petri dishes containing yeast nitrogen base-complete medium (YNB-CM; 0.17% YNB without amino acids, 1.5% granulated agar, 1% maltose, 0.1% PHP, and 0.3% asparagine). Two (2×4 cm) strips of filter paper were placed inside the lid of the plate and 200 μL of individual mono- or diterpenes or a mixture of monoterpenes (MT) were added onto the filter paper. The glass plates were sealed with DuraSeal™ film (Laboratory Sealing Film, VWR, cat #89031-573) and incubated at ˜22° C. in a sealed glass container for 7 days or until the mycelium reached the edge of the plates. Colony diameters were measured daily.
# Agrobacterium GV3101, a laboratory stock, was used to transform G. clavigera. The whole gene open reading frame (ORF) encoding GcABC-G1 in G. clavigera was replaced with the selective gene marker hygromycin B (hph). Gene replacement (deletion) was verified by PCR amplification of adjacent regions, target region and selective marker gene, and copy numbers were determined by southern blot. The G. clavigera GcABC-G1 deletion mutant was designated mutant Δgcabc-g1.
# (§4) Colony morphologies and growth rates were examined for G. clavigera WT and mutant Δgcabc-g1 grown on malt extract agar (MEA) in the presence and absence of 200 μL of a mixture of monoterpenes as described in Example 3.A.1. above. Fungal growth rates were calculated (mm/day). Mycelium growth rates were also determined in the presence or absence of 200 μL of individual monoterpenes, including R-(+)-limonene, 3-carene, α-pinene and β-pinene, or 200 μL of a mixture of monoterpenes (R-(+)-limonene, 3-carene, α-pinene and β-pinene at a ratio of 5:3:1:1). Fungal spores were incubated for 3 days on MEA overlaid with cellophane (Amersham Biosciences, cat #80611781); then the young mycelia were treated with individual monoterpenes or a mixture of monoterpenes (200 μL) for 3-4 days before being transferred onto YNB. In YNB, monoterpenes were provided on filter paper as described in Example 3.A.1. and if necessary were re-supplied biweekly until the mycelia covered at least half of the media surface (3-4 weeks). Colony diameters were measured daily. Fungal growth rates were calculated (mm/day). Results were calculated as the average of 5 replicates and standard deviation was calculated.
# [4] = system: G. clavigera WT; assay: Mycelium growth on MEA with monoterpenes; type: cell-based, Grosmannia clavigera; conditions: for growth delay of G. clavigera WT: 200 μL individual monoterpene or MT; for fungal growth rate, G. clavigera WT: 200 μL monoterpene, linear phase after delay
# Experimental: as §3, §4
# [5] = system: mutant Δgcabc-g1 fungal spores; assay: Asexual spore germination and survival with monoterpenes; type: cell-based, Grosmannia clavigera
# Experimental: (§5) G. clavigera WT or mutant Δgcabc-g1 fungal spores were collected from 7-14 day old cultures grown on MEA (0.83% Oxoid™ malt extract agar and 0.75% technical agar, pH was adjusted to 5-6). Mycelium debris was removed by filtration (BD Falcon Cell Strainers; cat #08-771-1). Spore concentrations were determined using a haemocytometer and further diluted to ˜2 spores/μL. 100 μL of the spore suspension was spread on MEA in glass plates. For monoterpene treatment, two (2×4 cm) strips of filter paper were placed inside the lid of the plate and 200 μL of a mixture of monoterpenes were added onto the filter paper. For diterpene treatment, 100 μL of the spore suspension was spread on MEA containing 0.01% of a mixture of diterpenes (abietic acid, dehydroabietic acid and isopimaric acid). The glass plates were sealed with DuraSeal™ film (Laboratory Sealing Film, VWR, cat #89031-573) and incubated at ˜22° C. in a sealed glass container. The germinated spores were counted daily; at day 6 the monoterpenes were removed and the MEA plates were further incubated for 4 days to assess the survival of the spores.
# [6] = system: G. clavigera WT fungal spores; assay: as above; type: cell-based, Grosmannia clavigera; conditions: MEA, 200 μL monoterpene; for spore germination inhibition, G. clavigera: counted after 6 days; for spore germination partially reduced, G. clavigera: 6 days, relative to non-treated control
# Experimental: as §5
# [7] = system: mutant Δgcabc-g1; assay: Growth on YNB with monoterpenes as sole carbon source; type: cell-based, Grosmannia clavigera
# Experimental: as §1, §2
# [8] = system: G. clavigera WT; assay: Growth on MEA with individual diterpenes; type: cell-based, Grosmannia clavigera; conditions: individual diterpene in MEA (0.1% per FIG. 8), pH ~8.0
# Experimental: (§6) Growth rates were examined for G. clavigera WT and the mutant Δgcabc-g1 grown on MEA in the presence or absence of 200 μL of abietic acid, dehydroabietic acid and isopimaric acid as described in Example 3.A.2. Each diterpene was dissolved in a basic NaOH solution before being added into the MEA medium; the final pH of the medium was ˜8.0. Growth rates were calculated daily (mm/day). The results are shown in FIG. 8, which indicates growth rate in mm/24 hr for the average of three replicates. Error bar represents standard deviation.
# [9] = system: mutant Δgcabc-g1; assay: Growth on MEA with individual diterpenes; type: cell-based, Grosmannia clavigera; conditions: individual diterpene in MEA (0.1% per FIG. 8), pH ~8.0
# Experimental: as §6
# [10] = system: O. piceae; assay: Growth on YNB with quinic acid as sole carbon source; type: cell-based, Ophiostoma piceae; conditions: YNB media
# From the text: The cluster contains seven genes that include a quinate permease, two regulatory genes, one acting as an activator and the other as a repressor, and the four genes of the quinate/shikamate catabolic pathway (Asch et al. (1991) Mol Gen Genet 230(3):337-344, Giles et al. J Hered 82(1):1-7). The latter four catabolic genes (OPP_08735 to OPP_08738) reveal that O. piceae uses quinic acid in wood as a carbon source. While this gene cluster is reported in many fungi, this gene cluster was not identified in G. clavigera. […] Finally, a secreted lipase (OPP_00605) with a predicted triglycerides degradation activity was identified; its abundance relative to the control mannose was at least 50-fold.
# [11] = MEA, 200 μL monoterpene, 6 days
SMILES,Sc-ABC cells survived relative to Sc-V [1],"growth with monoterpene as sole carbon source, wildtype G. clavigera [2]",growth delay of mutant Δgcabc-g1 [3],growth delay of G. clavigera WT [4],Observation (A) Gc spore survival ([5]; {}),Observation (B) Transformed Sc survival [1],"spore germination, mutant Δgcabc-g1 [5, 11]",further results
CC1=CCC2CC1C2(C)C (racemic) [α-pinene],not significantly different,not able to utilize,1 days,not,"+ (Difference between with and without GcABC-G1 is less than 50%, P-value < 0.01)",,,"fungal growth rate, mutant Δgcabc-g1 [3]: ~7 mm/day; fungal growth rate, G. clavigera WT [4]: ~7 mm/day; spore germination reduced, mutant Δgcabc-g1 ([5]; MEA, 200 μL monoterpene, 6 days, relative to non-treated control): 30%; spore germination inhibition, G. clavigera [6]: not inhibited"
"C=C(C)C1CC=C(C)CC1 (single isomer, unassigned; (+)) [(+)-limonene, R-(+)-limonene]",approximately 7 times,grew,2 days,1 days,,"+++ (Difference between with and without GcABC-G1 is more than 50%, P-value < 0.01)",completely prevent spore germination,"relative inhibition of the yeast GcABC-G1 transformant by individual monoterpenoids [1]: least inhibitory effect; fate of mutant Δgcabc-g1 on YNB with monoterpene ([7]; 10 μL): survived, but did not grow; fate of mutant Δgcabc-g1 on YNB with monoterpene ([7]; 200 μL): killed; growth rate of mutant Δgcabc-g1 lower than G. clavigera WT [3]: 52%; Observation (A) Gc spore survival ([5]; GcABC-G1-dependent difference, Gc versus Δgcabc-g1): + (Difference between with and without GcABC-G1 is less than 50%, P-value < 0.01); spore germination partially reduced, G. clavigera [6]: ~70%"
CC1=CCC2C(C1)C2(C)C (centres unmarked) [3-carene],approximately 30 times,,2 days,1 days,"+++ (Difference between with and without GcABC-G1 is more than 50%, P-value < 0.01)","+++ (Difference between with and without GcABC-G1 is more than 50%, P-value < 0.01)",completely prevent spore germination,"fungal growth rate, mutant Δgcabc-g1 [3]: 5 to 6 mm/day; fungal growth rate, G. clavigera WT [4]: 5 to 6 mm/day; spore germination inhibition, G. clavigera [6]: not inhibited"
"C=C1CC[C@H]2C[C@@H]1C2(C)C [(−)-β-pinene, (1S)-(−)-β-Pinene]",~3 times,not able to utilize,up to 3 days,,"+ (Difference between with and without GcABC-G1 is less than 50%, P-value < 0.01)","+++ (Difference between with and without GcABC-G1 is more than 50%, P-value < 0.01)",completely prevent spore germination,"relative inhibition of the yeast GcABC-G1 transformant by individual monoterpenoids [1]: strongest inhibition effect; growth rate of mutant Δgcabc-g1 lower than G. clavigera WT [3]: 60%; spore germination partially reduced, G. clavigera [6]: ~70%"
CC(C)C1=CC2=CC[C@@H]3[C@](C)(CCC[C@@]3(C)C(=O)O)[C@H]2CC1 [abietic acid],,,,,,,,"growth inhibition, G. clavigera WT [8]: only slightly inhibited growth; growth inhibition, mutant Δgcabc-g1 [9]: only slightly inhibited growth"
C=C[C@@]1(C)CC[C@H]2C(=CC[C@@H]3[C@]2(C)CCC[C@@]3(C)C(=O)O)C1 [isopimaric acid],,,,,,,,"growth inhibition, G. clavigera WT [8]: only slightly inhibited growth; growth inhibition, mutant Δgcabc-g1 [9]: only slightly inhibited growth"
O=C(O)[C@]1(O)C[C@@H](O)[C@@H](O)[C@H](O)C1 [quinic acid],,,,,,,,growth of O. piceae with quinic acid as sole carbon source [10]: grows
